Test results published in ChEMBL document CHEMBL1136254, “Synthesis and SAR of 8-arylquinolines as potent corticotropin-releasing factor1 (CRF1) receptor antagonists” (Bioorg Med Chem Lett, 2003).
In brackets after ≈: the same amount, converted by molar mass.

Tests used:
[1] = molecular target: T1, Corticotropin-releasing factor receptor 1 (Homo sapiens, UniProt P34998); assay: Binding affinity towards cloned human Corticotropin releasing factor receptor 1 expressed in CHO cells using [125I]o-CRF as the radioligand; type: cell-based
T1 sequence (P34998 whole entry): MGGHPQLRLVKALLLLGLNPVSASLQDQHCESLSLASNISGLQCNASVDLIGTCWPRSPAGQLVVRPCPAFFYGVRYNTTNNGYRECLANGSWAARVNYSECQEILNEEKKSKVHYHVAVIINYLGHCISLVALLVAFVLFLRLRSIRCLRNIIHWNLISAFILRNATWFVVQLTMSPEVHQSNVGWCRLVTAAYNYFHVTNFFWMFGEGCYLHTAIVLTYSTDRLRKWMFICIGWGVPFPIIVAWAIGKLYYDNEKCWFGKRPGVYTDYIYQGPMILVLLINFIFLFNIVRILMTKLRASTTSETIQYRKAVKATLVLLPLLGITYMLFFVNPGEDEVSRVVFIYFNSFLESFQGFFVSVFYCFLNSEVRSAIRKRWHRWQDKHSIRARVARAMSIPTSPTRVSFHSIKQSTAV

[2] = molecular target: T1, Corticotropin-releasing factor receptor 1; assay: Inhibition of Corticotropin releasing factor receptor 1-stimulated cAMP production; type: functional
[3] = pKa value was determined; type: physicochemical
[4] = Solubility at pH 4; type: physicochemical; settings: buffer

Row | SMILES | Ki [1] [nM] | IC50 [2] [nM] | pKa [3] | solubility [4] [µg/mL]
1 | CCCN(CC1CC1)c1cc(C)nc2c(-c3ccc(Cl)cc3Cl)c(C)ccc12 | 2.5 | – | – | –
2 | CCCN(CC1CC1)c1cc(C)nc2c(-c3c(C)cc(C)cc3C)cccc12 | 2.2 | – | – | –
3 | CSc1cc(C)nc2c(-c3ccc(Cl)cc3Cl)cccc12 | 16 | – | – | –
4 | COCCN(CCOC)c1cc(C)nc2c(-c3c(C)cc(C)cc3C)cccc12 | 6.5 | – | – | –
5 | CCCN(CC1CC1)c1cc(C)nc2c(-c3ccc(Cl)cc3Cl)cccc12 | 0.5 | 16 | – | –
6 | CCCN(CCC)c1cc(C)nc2c(-c3cnc(N(C)C)cc3C)c(C)nn12 | – | – | 7.1 | 10000 (≈ 26.3 mM)
7 | COCCN(CCOC)c1cc(C)nc2c(-c3ccc(Cl)cc3Cl)cccc12 | 5.7 | 14 | – | –

Results, then the compound that gave them:

Row | Ki [1] [nM] | IC50 [2] [nM] | pKa [3] | solubility [4] [µg/mL] | SMILES
8 | 5.7 | 51 | – | – | CCCCN(CC)c1cc(C)nc2c(-c3ccc(Cl)cc3Cl)cccc12
9 | 8.9 | – | – | – | CCCN(CCC)c1cc(C)nc2c(-c3ccc(Cl)cc3)cccc12
10 | 52 | – | – | – | CCCN(CCC)c1cc(C)nc2c(-c3ccc(OC)cc3)cccc12
